Experimental data as given in patent US20040109905A1, “Method and composition of anthocyanin-rich berry extracts that prevents or inhibits angiogenesis and helicobacter pylori and acts as a powerful antioxidant that provides various health benefits” (priority 2002, published 2004).

System: H2O2-induced expression of VEGF
Assay: H2O2-induced VEGF expression in HaCaT keratinocytes (ELISA)
Assay type: cell-based, human
Conditions: for VEGF: HaCaT cells, FA 200 nM, catechin 100 nM, rutin 1 μM, α-tocopherol 10 μM for 12 hours, then H2O2 150 μM for 12 hours, Mean±SD of three experiments; for effect on H2O2 (oxidant)-inducible VEGF expression, in words: human keratinocytes
Method: The cells used for the test were immortalized HaCaT human keratinocytes grown in Dulbecco's modified Eagle's medium (provided by Life Technologies of Gaithersburg, Md.) and supplemented with 10% fetal bovine serum, 100 U/mL penicillin and 100 μg/mL streptomycin.
Solutions incorporating berry extracts or GSPE were prepared fresh in dimethyl sulfoxide at concentrations such that the final concentration of the solvent in cell suspension never exceeded 0.1% prior to cell treatment, the DMSO solutions were passed through a […] filter for sterilization. Respective controls were treated with equal volumes of dimethyl sulfoxide. The test cells were pretreated with the berry solutions.
Test cells were seeded onto multiple well culture-plates. After 24 hours of growth at 80% confluency, the cells were synchronized by culturing them in a serum-deprived medium for 12 hours. Following the synchronization, the cells were treated with H2O2 or TNFα. The berry treatment protocols are described in the legends for Tables 2 through 4 below. A serum-free medium was selected to avoid any possible interaction between the serum components and H2O2. The VEGF level in the medium was determined using a commercially available ELISA kit, marketed by R and D systems of Minneapolis, Minn.
(§1) HaCaT cells were seeded at density 0.45×10^6/well/3 ml. After 24 hr, growth media was chanced to serum free RPMI and berry samples (50 μg/ml) or GSPE (25 μg/ml) were added. After 12 hours, cells were challenged with H2O2 (150 μM). After 12 hours of activation with H2O2, media was collected for ELISA. *p<0.05, higher in response to H2O2 treatment; *lower compared to H2O2 treated cells. Mean±SD of three experiments.
as §1, with “and either pure flavonoids ([…], FA 200 nM; catechin, Cat 100 nM, ruti, rut 1 μM) at concentrations observed in” for “and”, “samples” for “samples (50 μg/ml)”, “a α-tocopherol (10 μM as reference antioxidant)” for “GSPE (25 μg/ml)”

Compound	VEGF [pg/mL]	effect on H2O2 (oxidant)-inducible VEGF expression, in words
COc1cc(/C=C/C(=O)O)ccc1O [Ferrulic Acid]	319.19 ± 21.05	suppress oxidant-inducible VEGF expression to some degree
Cc1c(C)c2c(c(C)c1O)CC[C@@](C)(CCC[C@H](C)CCC[C@H](C)CCCC(C)C)O2 [α-tocopherol]	397.10 ± 64.91	did not influence inducible VEGF expression
Catechin	285.89 ± 51.13	suppress oxidant-inducible VEGF expression to some degree
C[C@@H]1O[C@@H](OC[C@H]2O[C@@H](Oc3c(-c4ccc(O)c(O)c4)oc4cc(O)cc(O)c4c3=O)[C@H](O)[C@@H](O)[C@@H]2O)[C@H](O)[C@H](O)[C@H]1O [Rutin]	209.06 ± 59.28	–
